From US8551947B2, “Treatment of hibernating myocardium with an exendin peptide” (Amylin Pharmaceuticals, LLC, priority 2000, dated 2013)
No end group written: not given here.

Assays:
pancreas = conditions: cited from earlier work
[1] = tested on: HM dog model (pacing-induced heart failure); assay: Paced dog model of hibernating myocardium: 48 h i.v. infusion, plasma catecholamines and hemodynamics; type: in vivo, Beagle dogs; conditions: for LV contractility (dP/dt) restored to: Dog A (FIG. 1); for LV ejection fraction (LVEF) improved to: Dog A (FIG. 2); for LV wall thickening: Dog A (FIG. 3); for Cardiac output (CO): Dog A (FIG. 4); for CBF (coronary blood flow) / LVEDP (LV end-diastolic pressure) / LVP (left ventricular pressure) / MVO2 (myocardial oxygen consumption) / dP/dt (left ventricular contractility) / NE (plasma norepinepherine): GLP-1 group
Text: The “paced dog” model, used in the Example below, provides a system to study NM, because the exertion of the heart exceeds the heart's ability to respond, which creates an energy-limited situation. Other suitable animal models are available to study chronically dysfunctional viable myocardium, in dogs and pigs, for example, which allow laboratory study of therapeutic regimens. […] Canty a al., Am. J. Physiol, 277; H417-H422 (1999). Similar animal models in diabetic dogs, mice and rats are available for the study of DCM. Bell (1995); Fein (1990).
Beagle dogs were fitted with telemetry devices that permit tong-term ambulatory data collection in conscious animals. These devices measured LV pressure, myocardial oxygen consumption (MVO2, an expression of myocardial efficiency), coronary flow (CBF), and cardiac output (CO). The dogs were “paced,” such that heart rate was forced up to about 240 beats per minute, for 3-4 weeks, which induces moderate HM in a predictable manner. This HM dog model is an accepted model for assessing the effectiveness of treatments for HM. Kiuchi et al., “Myocardial beta-adrenergic receptor function during the development of pacing-induced heart failure.” J. Clin. Invest. 91: 907-914 (1993).
During the treatment period, “pacing” was discontinued. Plasma catecholamines were assessed before and after infusion, along with LV pressures, coronary and systemic hemodynamics, and MVO2.

[2] = 48 h i.v. infusion 1.5 pmol/kg/min, after vs before
[3] = AFTER 48 h i.v. infusion 1.5 pmol/kg/min

Glu Gly Thr Phe Thr Ser Asp Val Ser Ser Tyr Leu Glu Gly Gln Ala Ala Lys Glu Phe Ile Ala Trp Lau Val Lys Gly Arg Gly (EGTFTSDVSSYLEGQAAKEFIAWLVKGRG; not fully specified; printed as Glu Gly Thr Phe Thr Ser Asp Val Ser Ser Tyr Leu Glu Gly Gln Ala Ala Lys Glu Phe Ile Ala Trp Lau Val Lys Gly Arg Gly) [SEQ ID NO:5]
stimulation of production or release of insulin from the pancreas (pancreas): do not stimulate production or release of insulin

Glu Gly Thr Phe Thr Ser Asp Val Ser Ser Tyr Leu Glu Gly Gln Ala Ala Lys Glu Phe Ile Ala Trp Leu Val Lys Gly Arg (NH2) (EGTFTSDVSSYLEGQAAKEFIAWLVKGR-NH2) [SEQ ID NO:6]
stimulation of production or release of insulin from the pancreas (pancreas): do not stimulate production or release of insulin

rGLP-1 (7-36) amide
Effect of treatment on LV end-diastolic pressure (LVEDP), in words [1, 2]: significantly decreasing | Effect of treatment on cardiac output (CO), in words [1, 2]: significantly (*p<0.05) increased | Effect of treatment on coronary blood flow (CBF), in words [1, 2]: significantly (*p<0.05) increased | Effect of treatment on left ventricular contractility (LV dP/dt), in words [1, 2]: significantly (*p<0.05) increased | Effect of treatment on left ventricular pressure (LVP), in words [1, 2]: significantly (*p<0.05) increased | Effect of treatment on myocardial oxygen consumption (MVO2), in words [1, 2]: significantly (*p<0.05) increased | LV contractility (dP/dt) restored to ([1]; 24 hours of treatment, pacing had reduced contractility by 60%): 80 % of baseline | LV contractility (dP/dt) restored to ([1]; 48 hours of treatment): 90 % of baseline | LV ejection fraction (LVEF) improved to ([1]; 24 hours of treatment, pacing had reduced LVEF by 40%): 88 % of the baseline value | LV ejection fraction (LVEF) improved to ([1]; 48 hours of treatment): 95 % of the baseline value | LV wall thickening ([1]; 24 hours of treatment, pacing had reduced wall thickening by 20%): recovered | LV wall thickening ([1]; 48 hours of treatment): 147 % of the baseline value | Cardiac output (CO) ([1]; 24 hours of treatment, pacing had reduced CO by 30%): restored to baseline levels | Cardiac output (CO) ([1]; 48 hours of treatment): 116 % of baseline | CBF (coronary blood flow) [1, 3]: 37 ± 3 mL/min | LVEDP (LV end-diastolic pressure) [1, 3]: 15 ± 1 mm Hg | LVP (left ventricular pressure) [1, 3]: 108 ± 2 mm Hg | MVO2 (myocardial oxygen consumption) [1, 3]: 297 ± 16 ml O2/min | dP/dt (left ventricular contractility) [1, 3]: 2212 ± 86 mm Hg/s | NE (plasma norepinepherine) ([1]; AFTER 48 h i.v. infusion 1.5 pmol/kg/min, *p<0.05): 1.62 ± 0.11* nmol/ml | NE (plasma norepinepherine) ([1]; AFTER 48 h i.v. infusion 1.5 pmol/kg/min, *p<0.05, listed as CLP-1): 1.62 ± 0.11 nmol/mL | CBF (coronary blood flow) ([1]; BEFORE infusion): 27 ± 1 mL/min | LVEDP (LV end-diastolic pressure) ([1]; BEFORE infusion): 25 ± 1 mm Hg | LVP (left ventricular pressure) ([1]; BEFORE infusion): 98 ± 2 mm Hg | MVO2 (myocardial oxygen consumption) ([1]; BEFORE infusion): 246 ± 18 ml O2/min | dP/dt (left ventricular contractility) ([1]; BEFORE infusion): 1127 ± 86 mm Hg/s | NE (plasma norepinepherine) ([1]; BEFORE infusion (after 3-4 weeks pacing), five dogs): 2.30 ± 0.15 nmol/mL | NE (plasma norepinepherine) ([1]; BEFORE infusion (after 3-4 weeks pacing), five dogs, listed as CLP-1): 2.30 ± 0.15 nmol/mL
